Results on 60 compounds are retold here after PubChem BioAssay AID720592 (Broad Institute, 2013).

Calls of active or inactive are those of the source. No rule for the calls is given here.

This assay has as its target BioA (adenosylmethionine-8-amino-7-oxononanoate aminotransferase), Mycobacterium tuberculosis. The assay can be described thus: inhibition of purified M. tuberculosis BioA – biochemical, plate reader, dry powder samples, dose response (AID 720592). The note with it: purified Mtb BioA enzyme, plate reader activity; for inhibition: at 10 µM (top of the series).

In the case of `O=C(Nc1ccccc1)N1CCN(c2ccccc2)CC1`, the inhibition result is “inactive”.
`Cc1ccccc1/C=C(\CCC(=O)O)c1nc2ccccc2s1`: the AC50 is > 20 µM (inactive).
Take `O=C(Nc1ccc2snnc2c1)N1CCCCC1`: the inhibition result is “inactive”.
The same measure, in the same setting: then `COc1ccc(-c2cc(C(F)(F)F)n3nc(C(=O)Nc4cccnc4)cc3n2)cc1`, with “inactive”.
On the same count and under the same terms, the result for `COc1cccc(C(=O)N2CCN(c3ccc(C(C)=O)cc3)CC2)c1` reads “inactive”; that for `Cc1ccc(/C=C(\CCC(=O)O)c2nc3ccccc3s2)cc1`, “inactive”.
On the same count and under the same terms, the result for `COC(=O)c1c(C(=O)OC)c(-c2cccc(F)c2)n2c1CS(=O)C2` (stereo not given) reads “inactive”.
Take `O=C(Nc1ccc(F)cc1)N1CCN(c2ccccc2)CC1`: the AC50 is > 20 µM (inactive).
Turning to `O=C(Nc1cccnc1)N1CCN(c2ccccc2)CC1`, the inhibition result was “inactive”.
Same read-out and setting: then `CC(=O)c1ccc(N2CCN(C(=O)c3cccnc3)CC2)cc1`, with “inactive”; and `O=C(Nc1cccc(Cl)c1)N1CCN(c2ccccc2)CC1`, with “inactive”; and `O=C(c1ccc2c(c1)OCO2)N1CCN(c2ccccc2)CC1`, with “inactive”.
The same measure, in the same setting: then `Cc1ccc(-c2cc(C(F)(F)F)n3nc(C(=O)Nc4cccnc4)cc3n2)cc1`, with “inactive”.
`Cc1nc2cc(NC(=O)N3CCN(c4ccccc4)CC3)ccc2o1`: the inhibition entry is “inactive”.
Still for that read-out and setting: the result for `CC(=O)c1ccc(N2CCN(C(=O)c3ccc(Br)cc3)CC2)c(F)c1` reads “inactive”; that for `CC(=O)c1ccc(N2CCN(C(=O)c3ccc(F)cc3)CC2)cc1`, “inactive”.
Still for that read-out and setting: then `CC(=O)c1ccc(N2CCN(C(=O)c3ccc4c(c3)OCO4)CC2)cc1`, with “inactive”; and `COc1ccc(N2CCN(C(=O)c3ccc4c(c3)OCO4)CC2)cc1`, with “inactive”; and `CC(=O)c1ccc(N2CCN(C(=O)c3ccc4c(c3)OCCO4)CC2)cc1`, with “inactive”.
With `COc1ccc(NC(=O)N2CCN(c3ccccc3)CC2)cc1`, the AC50 was > 20 µM (inactive).
`O=C(c1ccc2c(c1)OCO2)N1CCN(Cc2ccccc2)CC1`: the inhibition result is “inactive”.
On the same count and under the same terms, then `O=C(Nc1cccc(F)c1)N1CCN(c2ccccc2)CC1`, with “inactive”.
Same read-out and setting: then `Cc1ccc(NC(=O)N2CCN(c3ccccc3)CC2)cc1`, with “inactive”; and `CC(=O)c1ccc(N2CCN(C(=O)c3ccc4ncsc4c3)CC2)cc1`, with “inactive”.
On the same count and under the same terms, the result for `Cc1cccc(/C=C(\CCC(=O)O)c2nc3ccccc3s2)c1` reads “inactive”; that for `O=C(COc1ccc2ccc(=O)oc2c1)N1CCN(c2ccc(F)cc2)CC1`, “inactive”.
As for `COc1cccc(NC(=O)N2CCN(c3ccccc3)CC2)c1`, the inhibition result was “inactive”.
Still for that read-out and setting: the result for `COc1cc(/C=C/C(=O)Nc2cccnc2)cc(OC)c1OC` reads “inactive”; that for `Cc1ccc(/C=C(\CCCC(=O)O)c2nc3ccccc3s2)cc1[N+](=O)[O-]`, “inactive”.
The same measure, in the same setting: then `Cc1cc(C)n2nc(C(=O)Nc3cccnc3)cc2n1`, with “inactive”.
On to `O=C(Nc1cccnc1)c1cnn2c(C(F)(F)F)cc(-c3ccccc3)nc12`, for which the AC50 was > 20 µM (inactive).
Turning to `O=C(O)CC/C(=C\c1ccccc1[N+](=O)[O-])c1nc2ccccc2s1`, the inhibition entry was “inactive”.
The same measure, in the same setting: the result for `CC(=O)c1ccc(N2CCN(C(=O)c3ccc(Cl)cc3)CC2)cc1` reads “inactive”; that for `Cc1nc2ccc(NC(=O)N3CCN(c4ccccc4)CC3)cc2s1`, “inactive”.
Still for that read-out and setting: then `O=C(Nc1ccc2[nH]ccc2c1)N1CCN(c2ccccc2)CC1`, with “inactive”; and `Cc1ccc(/C=C(\CCC(=O)O)c2nc3ccccc3s2)cc1[N+](=O)[O-]`, with “inactive”; and `O=C(Nc1ccc2snnc2c1)N1CCN(c2ccccc2)CC1`, with “inactive”.
Same read-out and setting: then `Cc1ccc(/C=C(\CC(=O)O)c2nc3ccccc3s2)cc1[N+](=O)[O-]`, with “inactive”.
As for `COc1ccc(C(=O)N2CCN(c3ccc(C(C)=O)cc3)CC2)cc1`, the AC50 was > 20 µM (inactive).
Still for that read-out and setting: then `Cc1cc(C)n2nc(C(=O)Nc3cccnc3)nc2n1`, with > 20 µM (inactive).
For `O=C(Nc1ccc(Cl)c(-c2nc3ccccc3[nH]2)c1)c1cccnc1`, the inhibition entry was “inactive”.
As for `O=C(Nc1cccnc1)c1cc2nc(-c3cccs3)cc(C(F)(F)F)n2n1`, the inhibition entry was “inactive”.
As for `CCN(CC)c1ccc2cc(C(=O)c3cccs3)c(=O)oc2c1`, the inhibition result is “inactive”.
Same read-out and setting: then `O=C(c1ccc2c(c1)OCO2)N1CCN(c2ccc(F)cc2)CC1`, with “inactive”; and `O=C(Nc1cccnc1)c1cnn2c(C(F)F)cc(C3CC3)nc12`, with “inactive”.
In the case of `CCc1ccc(C(=O)N2CCN(Cc3ccc4c(c3)OCO4)CC2)cc1`, the inhibition entry was “inactive”.
On the same count and under the same terms, then `CCc1ccc(N2CCN(C(=O)c3ccc4c(c3)OCO4)CC2)cc1`, with “inactive”.
On the same count and under the same terms, the result for `CC(=O)c1ccc(N2CCN(C(=O)c3cccc(F)c3)CC2)cc1` reads “inactive”.
Consider `CC(=O)c1ccc(N2CCN(C(=O)c3cccc(Cl)c3)CC2)cc1`, for which the AC50 is > 20 µM (inactive).
As to `O=C(Nc1ccc(Cl)cc1)c1cc2nc(C3CC3)cc(C(F)(F)F)n2n1`, the inhibition result was “inactive”.
For the compound `COc1cccc(NC(=O)CCC2CCN(C(=O)c3ccc(C(C)=O)s3)CC2)c1`, the inhibition result was “inactive”.
Still for that read-out and setting: then `CC(=O)c1ccc(N2CCN(C(=O)c3ccc(C)cc3)CC2)cc1`, with “inactive”.
On the same count and under the same terms, then `CC(C)(C)c1ccc(C(=O)N2CCN(c3ccc4c(c3)OCO4)CC2)cc1`, with “inactive”.
As to `O=C(O)CC/C(=C\c1ccc([N+](=O)[O-])cc1)c1nc2ccccc2s1`, the inhibition entry was “inactive”.
The same measure, in the same setting: the result for `CC(=O)c1ccc(N2CCN(Cc3ccc4c(c3)OCO4)CC2)cc1` reads “inactive”.
For `O=C(c1ccc2c(c1)OCO2)N1CCN(c2ccc(Cl)cc2)CC1`, the AC50 was > 20 µM (inactive).
For the compound `O=C(Nc1ccncc1)c1cc2nc(C3CC3)cc(C(F)F)n2n1`, the inhibition entry is “inactive”.
Still for that read-out and setting: then `CCOC(=O)N1CCN(C(=O)Nc2ccc3snnc3c2)CC1`, with “inactive”; and `O=C(Nc1ccc2snnc2c1)N1CCOCC1`, with “inactive”.
The same measure, in the same setting: then `CC(=O)c1ccc(N2CCN(C(=O)c3ccccc3)CC2)cc1`, with “inactive”.
